Results from patent US9459250B2, “Use of T1R3 venus flytrap region polypeptide to screen for taste modulators” (SENOMYX, INC., priority 2003, dated 2016).
“Also recorded” adds a separate entry of the source. Read-outs that look alike come from different tables or passages of the source. Blank lines part the entries; values can stand above or below the molecule they belong to. Where a SMILES comes first, the peptide text is derived from it.

Tests used:
T1R1/T1R3 [1] = molecular target: T1, T1R1/T1R3 (Homo sapiens (Human), UniProt Q7RTX0+Q7RTX1); experiment: FLIPR dose responses of human T1R1/T1R3 stable cell line with modulators; format: cell-based; conditions: for effect of control sweeteners on activities of T1R1/T1R3 umami taste receptor: [Steviocide]=0.5 mM, [Saccharin]=1 mM, glutamate and glutamate/IMP dose responses
T1 sequence (Q7RTX1 21-841): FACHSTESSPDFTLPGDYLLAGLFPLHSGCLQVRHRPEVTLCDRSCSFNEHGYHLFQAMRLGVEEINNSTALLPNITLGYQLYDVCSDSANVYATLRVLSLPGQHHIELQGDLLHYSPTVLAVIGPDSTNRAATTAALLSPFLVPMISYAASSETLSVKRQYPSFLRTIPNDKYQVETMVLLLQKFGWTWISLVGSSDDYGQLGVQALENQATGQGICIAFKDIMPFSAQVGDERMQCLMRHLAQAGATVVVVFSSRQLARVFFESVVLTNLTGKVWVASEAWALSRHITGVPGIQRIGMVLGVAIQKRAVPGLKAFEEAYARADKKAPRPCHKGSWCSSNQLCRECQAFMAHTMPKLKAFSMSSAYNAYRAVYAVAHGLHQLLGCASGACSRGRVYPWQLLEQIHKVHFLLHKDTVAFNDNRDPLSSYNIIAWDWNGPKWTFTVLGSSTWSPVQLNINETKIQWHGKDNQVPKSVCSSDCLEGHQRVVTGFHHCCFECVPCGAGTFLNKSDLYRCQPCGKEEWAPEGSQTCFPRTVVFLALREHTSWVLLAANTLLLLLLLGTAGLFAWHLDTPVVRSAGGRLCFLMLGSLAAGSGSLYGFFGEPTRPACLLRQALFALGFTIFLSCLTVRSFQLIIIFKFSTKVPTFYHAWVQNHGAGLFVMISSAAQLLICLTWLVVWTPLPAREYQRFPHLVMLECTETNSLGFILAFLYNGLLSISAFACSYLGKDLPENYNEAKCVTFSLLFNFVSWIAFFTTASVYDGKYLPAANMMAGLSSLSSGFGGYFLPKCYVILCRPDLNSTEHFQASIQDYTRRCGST
T1 sequence (Q7RTX0 21-852 C757R): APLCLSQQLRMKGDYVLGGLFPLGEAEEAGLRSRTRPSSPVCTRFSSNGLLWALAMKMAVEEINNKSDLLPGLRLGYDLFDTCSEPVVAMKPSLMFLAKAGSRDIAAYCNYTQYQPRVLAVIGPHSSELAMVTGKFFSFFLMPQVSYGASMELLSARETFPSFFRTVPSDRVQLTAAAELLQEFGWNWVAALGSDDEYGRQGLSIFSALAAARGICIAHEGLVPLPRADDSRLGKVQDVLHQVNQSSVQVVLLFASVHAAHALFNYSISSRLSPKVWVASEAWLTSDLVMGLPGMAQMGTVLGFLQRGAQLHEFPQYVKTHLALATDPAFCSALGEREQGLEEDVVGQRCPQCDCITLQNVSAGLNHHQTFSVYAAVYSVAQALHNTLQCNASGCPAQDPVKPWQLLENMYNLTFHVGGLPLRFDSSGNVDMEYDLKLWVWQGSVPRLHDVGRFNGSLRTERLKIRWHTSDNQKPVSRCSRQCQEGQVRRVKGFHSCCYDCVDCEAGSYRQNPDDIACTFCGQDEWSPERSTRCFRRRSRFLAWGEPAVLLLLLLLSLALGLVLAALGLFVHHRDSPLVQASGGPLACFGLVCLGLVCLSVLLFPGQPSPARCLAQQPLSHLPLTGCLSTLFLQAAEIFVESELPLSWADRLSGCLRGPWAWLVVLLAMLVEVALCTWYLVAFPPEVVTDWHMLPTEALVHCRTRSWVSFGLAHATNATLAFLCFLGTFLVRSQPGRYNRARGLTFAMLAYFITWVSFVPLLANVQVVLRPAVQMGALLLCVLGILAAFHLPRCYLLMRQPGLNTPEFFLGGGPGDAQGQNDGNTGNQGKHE
Excerpt: (§1) “Detection thresholds” are defined as the lower limit of detectable tastants. The detection threshold values were averaged over four trials for three subjects. […] The activities in B, C, E and F represent the mean±SE of fold increases in fluorescence intensities for four recorded wells. The dose-responses in B, C, E and F were reproduced at least 6 times independently.
Human cell lines that stably co-express human T1R2/T1R3 or human T1R1/T1R3 were generated by transfecting linearized PEAK10-derived (Edge Biosystems) vectors and pcDNA 3.1/ZEO-derived (Invitrogen) vectors respectively containing hT1R1 or hT1R2 expression construct (plasmid SAV2485 for T1R1, SAV2486 for T1R2) and hT1R3 (plasmid SXV550 for T1R3) into a Gα15 expressing cell line. […] Following SAV2485/SXV550 and SAV2486/SXV550 transfections, puromycin-resistant and zeocin-resistant colonies were selected, expanded, and tested by calcium imaging for responses to sweet or umami taste stimuli. Cells were selected in 0.0005 mg/ml puromycin (CALBIOCHEM) and 0.1 mg/ml zeocin (Invitrogen) at 37° C. in low-glucose DMEM supplemented with GlutaMAX, 10% dialyzed FBS, and 0.003 mg/ml blasticidin. Resistant colonies were expanded, and their responses to sweet taste stimuli evaluated by Fluorescence microscopy. For automated fluorimetric imaging on VIPR-II instrumentation (Aurora Biosciences), T1R2/T1R3 stable cells were first seeded onto 96-well plates (approximately 100,000 cells per well).

T1R1/T1R3 [2] = molecular target: T1, T1R1/T1R3; experiment: Calcium imaging of HEK-Gα15 cells transiently transfected with human T1R1/T1R3; format: cell-based
T1R1/T1R3 [3] = molecular target: T1, T1R1/T1R3; experiment: Umami FLIPR assay, HEK-Gα15 clone I-17 inducibly expressing T1R1/T1R3; format: cell-based; conditions: for EC50: Table 1 Umami Amides
Experimental: A dose-dependent response curve was determined for a compound, and the compound concentration corresponding to 50% of the maximal response was derived from the curve, in one example.
Regarding umami tastants and enhancers, scores of their activities can be given as percentage of the maximum MSG intensity (%). In compound dose response, an EC50 can be calculated to reflect the potency of the compound as umami agonist.
(§2) HEK-Gα15 cells were engineered to inducibly express T1R1/T1R3 using the GeneSwitch system (Invitrogen). pGene-derived zeocin-resistant expression vectors for human T1R1 and T1R3 (plasmid SXV603 for T1R1 and SXV611 for T1R3) and a puromycin-resistant pSwitch-derived vector that carries the GeneSwitch protein (plasmid SXV628) were linearized and cotransfected into the HEK-Gα15 cell line. Zeocin-resistant and puromycin-resistant colonies were selected, expanded, induced with variable amounts of mifepristone, and tested by calcium imaging for responses to umami taste stimuli. […] After replacement with 50 μl PBS, stimulation was performed at room temperature by the addition of 50 μl PBS supplemented with different stimuli. The maximal fluorescence from four independent determinations were averaged, corrected for background fluorescence measured prior to compound addition, and normalized to the response to 0.002 mM ionomycin (CALBIOCHEM).

[4] = Human taste detection thresholds in the presence of lactisole; format: in vivo; conditions: millimolar (1 and 2 mM) lactisole, human subjects
Excerpt: as §1
The present inventors then evaluated the effect of lactisole on human umami taste.

mT2R5 = mT2R5 (Mus musculus (Mouse), UniProt Q9JKT4); experiment: Mouse bitter receptor mT2R5 transiently expressed in HEK cells; format: cell-based
Sequence of mT2R5 (Q9JKT4 whole entry): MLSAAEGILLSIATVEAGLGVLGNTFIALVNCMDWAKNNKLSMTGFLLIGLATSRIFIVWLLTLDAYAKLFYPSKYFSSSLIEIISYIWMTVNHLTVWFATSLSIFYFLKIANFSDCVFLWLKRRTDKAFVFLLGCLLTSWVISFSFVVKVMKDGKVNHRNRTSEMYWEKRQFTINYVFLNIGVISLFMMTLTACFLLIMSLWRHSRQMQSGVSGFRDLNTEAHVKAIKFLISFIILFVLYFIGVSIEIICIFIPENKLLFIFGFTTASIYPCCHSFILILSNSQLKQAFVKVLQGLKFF
Excerpt: As was the case for the T1R2/T1R3 receptor, lactisole inhibition of the T1R1/T1R3 response to umami taste stimuli was reversible following washout and restimulation.

[5] = test system: endogenous muscarinic acetylcholine receptor; experiment: Endogenous muscarinic acetylcholine receptor response in HEK cells; format: cell-based; conditions: carbachol
Excerpt: as §1

hT1R2/hT1R3 = hT1R2/hT1R3 (Homo sapiens (Human), UniProt Q7RTX0+Q8TE23); experiment: Sweet FLIPR assay, hT1R2/hT1R3-HEK293-Gα15 S-9 cells; format: cell-based; conditions: Table 5 Sweet Enhancer Amides
Sequence of hT1R2/hT1R3 (Q8TE23 other isoform, or with tags, fused parts or gaps): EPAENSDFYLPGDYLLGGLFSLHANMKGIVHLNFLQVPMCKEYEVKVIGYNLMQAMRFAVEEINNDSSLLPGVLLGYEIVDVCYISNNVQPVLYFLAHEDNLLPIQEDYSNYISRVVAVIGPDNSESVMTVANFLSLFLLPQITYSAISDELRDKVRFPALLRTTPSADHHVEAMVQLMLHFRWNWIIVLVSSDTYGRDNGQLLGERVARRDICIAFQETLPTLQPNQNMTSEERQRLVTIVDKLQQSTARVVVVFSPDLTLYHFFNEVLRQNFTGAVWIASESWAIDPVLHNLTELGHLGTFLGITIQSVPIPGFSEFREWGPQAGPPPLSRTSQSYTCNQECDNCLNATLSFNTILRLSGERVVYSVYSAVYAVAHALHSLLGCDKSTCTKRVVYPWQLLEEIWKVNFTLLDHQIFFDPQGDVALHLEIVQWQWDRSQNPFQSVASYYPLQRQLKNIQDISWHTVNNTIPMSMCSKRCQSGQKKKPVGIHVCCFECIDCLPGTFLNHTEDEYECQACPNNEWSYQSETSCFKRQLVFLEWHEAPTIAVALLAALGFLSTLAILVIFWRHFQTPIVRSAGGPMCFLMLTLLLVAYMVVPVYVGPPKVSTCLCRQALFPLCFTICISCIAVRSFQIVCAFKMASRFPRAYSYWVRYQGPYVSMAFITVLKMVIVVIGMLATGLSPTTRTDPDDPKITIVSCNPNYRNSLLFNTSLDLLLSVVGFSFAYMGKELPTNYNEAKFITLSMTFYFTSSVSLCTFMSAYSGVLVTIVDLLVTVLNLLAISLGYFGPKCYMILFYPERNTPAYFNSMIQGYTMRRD
Sequence of hT1R2/hT1R3 (Q7RTX0 21-852 C757R): as the sequence (Q7RTX0 21-852 C757R) above
Experimental: Compounds were initially selected based on their activity on the hT1R2/hT1R3-HEK293-Gα15 cell line (Li, et al. vide supra). Activity was determined using an automated fluorometric imaging assay on a FLIPR instrument (Fluorometric Intensity Plate Reader, Molecular Devices, Sunnyvale, Calif.) (designated FLIPR assay). […] S-9 cells were grown for 24 hours at 37° C. S-9 cells were then loaded with the calcium dye Fluo-3AM (Molecular Probes, Eugene, Oreg.), 4 μM in a phosphate buffered saline (D-PBS) (Invitrogen, Carlsbad, Calif.), for 1 hour at room temperature. After replacement with 25 μl D-PBS, stimulation was performed in the FLIPR instrument and at room temperature by the addition of 25 μl D-PBS supplemented with different stimuli at concentrations corresponding to twice the desired final level.
For dose-responses analysis, stimuli were presented in duplicates at 10 different concentrations ranging from 60 nM to 30 μM. Activities were normalized to the response obtained with 400 mM D-fructose, a concentration that elicits maximum receptor response. Ec50s were determined using a non-linear regression algorithm (using Senomyx, Inc. software), where the Hill slope, bottom asymptotes and top asymptotes were allow to vary.

human sweet receptor = human sweet receptor (Homo sapiens (Human), UniProt Q7RTX0+Q8TE23); experiment: Dose responses of human sweet receptor with lactisole; format: cell-based; conditions: read-out: EC50 of sweetener
Sequence of human sweet receptor (Q8TE23 other isoform, or with tags, fused parts or gaps): as the sequence (Q8TE23 other isoform, or with tags, fused parts or gaps) above
Sequence of human sweet receptor (Q7RTX0 21-852 C757R): as the sequence (Q7RTX0 21-852 C757R) above
Excerpt: Values represent the mean±SE for four independent responses.

T1R1/T1R3 [6] = molecular target: T1, T1R1/T1R3; experiment: Umami enhancement assay: MSG dose response with and without compound; format: cell-based; conditions: Table 1; compound @ 1 uM
Experimental: In enhancement assay experiments, a MSG dose response was run and a second MSG dose response was run with a certain amount of candidate compound at every MSG concentrations at the same time. Then, the EC50 ratio is calculated based on the following definitions: EC50 Ratio=EC50(MSG)/EC50(MSG+[Compound])
wherein “[compound]” refers to the concentration of compound used to elicit (or enhance or potentiate) the MSG dose response. Those concentrations can vary from a pM to an mM, more preferred, from a low nM to μM.
as §2

HEK293-Gα15 cells = experiment: FLIPR assay on HEK293-Gα15 cells not expressing the human sweet receptor; format: cell-based
Excerpt: In order to determine the dependency of hT1R2/hT1R3 for the cell response to different stimuli, selected compounds were subjected to a similar analysis on HEK293-Gα15 cells (not expressing the human sweet receptor).

Structure (SMILES): C=C1C[C@@]23CC[C@H]4[C@@](C)(CCC[C@@]4(C)C(=O)O[C@@H]4O[C@H](CO)[C@@H](O)[C@H](O)[C@H]4O)[C@@H]2CC[C@]1(O[C@@H]1O[C@H](CO)[C@@H](O)[C@H](O)[C@H]1O[C@@H]1O[C@H](CO)[C@@H](O)[C@H](O)[C@H]1O)C3 [Steviocide, stevioside]
effect of control sweeteners on activities of T1R1/T1R3 umami taste receptor (T1R1/T1R3 [1]): do not affect

Structure (SMILES): N[C@@H](CCC(=O)O)C(=O)O [L-glutamate, reference compound]
percentage of cells that responded (T1R1/T1R3 [2]; transiently transfected cells): approximately 10% | activation of T1R1/T1R3 receptor by L-amino acids (T1R1/T1R3 [3]; clone I-17, with and without IMP): significantly activated | percentage of cells that responded (T1R1/T1R3 [3]; induced cells (inducible T1R1/T1R3 expression)): approximately 80%

Structure (SMILES): COc1ccc(OC(C)C(=O)O)cc1 (stereo not drawn) [lactisole, Lactisole]
detection thresholds for sweet, umami and salt taste stimuli [4]: dramatically increased detection thresholds for sweet and umami but not salt taste stimuli | effect on mouse bitter receptor mT2R5 (mT2R5): no effect | effect on endogenous muscarinic acetylcholine receptor response [5]: not inhibited; also recorded: no effect

Structure (SMILES): N[C@@H](CCC(=O)O)C(=O)O [glutamate]
maximal percentage of responding cells (T1R1/T1R3 [2]; glutamate alone): approximately 5% | maximal percentage of responding cells (T1R1/T1R3 [2]; glutamate plus 0.2 mM IMP): approximately 10%

Structure (SMILES): O=C1NS(=O)(=O)c2ccccc21 [saccharin]
effect of other sweeteners on human T1R1/T1R3 activities (T1R1/T1R3 [1]): no effect | effect of control sweeteners on activities of T1R1/T1R3 umami taste receptor (T1R1/T1R3 [1]): do not affect

Structure (SMILES): N[C@H](Cc1c[nH]c2ccccc12)C(=O)O [D-Trp, D-tryptophan]
EC50 (human sweet receptor; 0 μM lactisole): 370 ± 20 µM | EC50 (human sweet receptor; 10 μM lactisole): 600 µM | EC50 (human sweet receptor; 20 μM lactisole): 940 ± 80 µM

Structure (SMILES): OC[C@H]1O[C@@](CO)(O[C@H]2O[C@H](CO)[C@@H](O)[C@H](O)[C@H]2O)[C@@H](O)[C@@H]1O [sucrose]
effect of other sweeteners on human T1R1/T1R3 activities (T1R1/T1R3 [1]): no effect | EC50 (human sweet receptor; 0 μM lactisole): 19400 ± 900 µM | EC50 (human sweet receptor; 10 μM lactisole): 24700 ± 1000 µM | EC50 (human sweet receptor; 20 μM lactisole): 31300 ± 300 µM

Structure (SMILES): COC(=O)[C@H](Cc1ccccc1)NC(=O)[C@@H](N)CC(=O)O [aspartame] (H-Asp-Phe-OMe)
effect of other sweeteners on human T1R1/T1R3 activities (T1R1/T1R3 [1]): no effect

Structure (SMILES): O=C(CO)[C@@H](O)[C@H](O)[C@H](O)CO [D-Fructose, D-fructose]
functional response in FLIPR assay (HEK293-Gα15 cells): do not show any functional response

Structure (SMILES): O=S(=O)(O)NC1CCCCC1 [cyclamate]
effect of compound alone on T1R1/T1R3 (T1R1/T1R3 [1]; alone): no effect | effect on T1R1/T1R3 activity in the presence of L-glutamate (T1R1/T1R3 [1]; threshold level of L-glutamate (4 mM)): enhanced the activity of the receptor

Structure (SMILES): N[C@H](Cc1c[nH]c2ccccc12)C(=O)O [D-tryptophan]
effect of other sweeteners on human T1R1/T1R3 activities (T1R1/T1R3 [1]): no effect

Continued, values first:

EC50 (hT1R2/hT1R3): 3.38 µM
Structure (SMILES): COc1cccc2c1CCCC2NC(=O)c1cc(O)ccc1O (stereo not drawn) [Compound E18, 2,5-dihydroxy-N-(5-methoxy-1,2,3,4-tetrahydronaphthalen-1-yl)benzamide]

Ec50 ratio (vs. MSG) (T1R1/T1R3 [6]): 4.51 | EC50 (T1R1/T1R3 [3]): 0.91 µM
Structure (SMILES): CCCC(CCC)NC(=O)c1cc2cc(C)ccc2o1 [Compound A10]

EC50 (hT1R2/hT1R3): 1.39 µM
Structure (SMILES): Cc1cc(C)c(C(=O)NC2CCCCCC2)c(C)c1 [Compound E49, N-cycloheptyl-2,4,6-trimethylbenzamide]

Ec50 ratio (vs. MSG) (T1R1/T1R3 [6]): 10.75 | EC50 (T1R1/T1R3 [3]): 0.29 µM
Structure (SMILES): CCC[C@@H](NC(=O)c1ccc(OC)c(Cl)c1)C(=O)OC [Compound A67]

EC50 (hT1R2/hT1R3): 8.09 µM
Structure (SMILES): Cc1oncc1C(=O)N[C@@H]1CCCc2ccccc21 [Compound E26, (R)-5-methyl-N-(1,2,3,4-tetrahydronaphthalen-1-yl)isoxazole-4-carboxamide]
